Test results published in patent US9890106B2, “Anti-cancer lead molecule” (KING ABDULLAH UNIVERSITY OF SCIENCE AND TECHNOLOGY, priority 2012, dated 2018).
Where “and” joins values, the source holds several entries; their conditions need not be identical. Equal entries are not always repeated. Where two headings read alike, the source gives them in different places.

Key:
[1] = tested on: MCF-7 (human breast cancer cell line); assay: MTT cytotoxicity assay, MCF-7
Procedure: (§1) The cytotoxicity of plumbagin and derivative ‘A’ was estimated by MTT assay. Cells were plated in a 384-well culture plates (2000 cells per well in 20 μl of media) for 24 h and cells were treated with various concentrations (0, 1.0, 5.0, 10.0, 20.0, 40.0, 80.0 and 100.0 μM) for 12 hr, 24 hr, 36 hr and 48 hr. Following desired incubation time, 5 μl of sterile 5 mg/ml MTT (3-(4,5-Dimethylthiazol-z-yl)-2,5diphenyltetrazolium bromide) (Sigma) dissolved in PBS was added to each well and the cells were incubated for another 4 hr followed by the addition of 30 μl of solubilisation solution (10% SDS, 10 mM HCl) and incubation for 16 hr at 37° C. The OD of each well at 595 nm was determined using a microtiter plate reader (BMG Pherastar).

[2] = tested on: BJ cell line (human normal fibroblast cells); assay: MTT cytotoxicity assay, BJ normal fibroblasts
Procedure: as §1

[3] = tested on: HepG2 (Hepatocellular carcinoma) cell line; assay: MTT cytotoxicity assay, HepG2 (in vitro hepatotoxicity model); conditions: for IC50: read-out: IC50 against HepG2
Procedure: as §1

MCF-7 cells [4] = assay: APOPercentage dye-uptake apoptosis assay, MCF-7; format: cell-based, human
Procedure: (§2) To further test if the cancer cells in present investigation are dying via apoptosis, a dye inclusion assay called APOPercentage was performed. APOPercentage™ is a dye-uptake assay that detects apoptotic cells during phospholipid phosphatidylserine (PS) trans-membrane movement. It has been established previously that APOPercentage™ can be used to detect early stages of apoptosis as efficiently as other technologies like Annexin V.
(§3) The cells were plated in 96 well plates at a density of 5×10^3 cells per well in triplicate in 90 μl of media. The cells were treated with 10 μl of desired concentration of plumbagin and derivative ‘A’ in DMEM media. The cells were incubated at 37° C. for 12 hr and 24 hr in different plates. 5 mM H2O2 was treated for 30 minutes to 1 hour as a positive control. The cells were stained with APOPercentage dye as per instructions from the vendor (Biocolor, UK). The cells were photographed with Nikon TS100 microscope. The OD was measured at 550 nm absorbance using BMG Pherastar and percentage of cells taking up APOPercentage dye was calculated.

BJ cells = assay: APOPercentage dye-uptake apoptosis assay, BJ; format: cell-based, human
Procedure: as §2, §3

MCF-7 tumor = assay: MCF-7 xenograft tumor inhibition in nude mice; format: in vivo; set-up: Tumor weight at autopsy, individual mouse (1-5) / Tumor weight at autopsy, AV: unit not given here; conditions: for Tumor volume measured externally, AV / Tumor volume measured externally, individual mouse (1-5) / Tumor weight at autopsy, AV / Tumor weight at autopsy, individual mouse (1-5) / Tumor inhibition rate (C − T)/C × 100%, tumor volume / Tumor inhibition rate (C − T)/C × 100%, tumor weight: Compound A 5 mg/kg, Compound P 2 mg/kg, i.p, qd*21 days; for Tumor inhibition rate (C − T)/C × 100%, tumor volume: based on tumor volume by calipers; for Tumor inhibition rate (C − T)/C × 100%, tumor weight: based on tumor weight at autopsy
Procedure: Amplified and implanted (S.C.) the cancer cells (MCF-7) into 4 nude mice with 1.0×10^7 cells in 0.1 ml PBS plus matrigel (1:1) /mouse, when tumors reach 300-500 mm^3, the tumor masses were harvested, cut into small pieces of approximately 1-2 mm^3, and then surgically implanted into the 42 new nude mice for model set up (eventually 30 tumor-bearing mice are selected).
(§4) When the tumor size reached a volume of 150 (150-220) mm^3, the tumor-bearing nude mice derived from MCF-7 cells were randomly assigned into 3 groups (10 mice/group): Group 1 was served as vehicle group (25% PEG400, 200 μl/20 g mouse, i.p, qd for 21 days and 25% PEG400, 400 μl/20g mouse, i.p, qd for 13 days), group 2 was administrated with derivative ‘A’ (5 mg/kg for 21 days and 10 mg/kg for 13 days, i.p, qd), group 3 was administrated with plumbagin (2 mg/kg for 21 days, i.p, qd). The administration period lasted for 3 weeks and 5 weeks. The detailed sacrificing schedule is described in section 5.
(§5) The tumor volume was measured every other day with calipers, and the body weight was measured immediately before measuring the tumor volume throughout the whole study. If the body weight loss is approaching 20%, stop dosing or decreased dosage will be carried out.
Tumor sizes were measured every other day in two dimensions using a caliper, and the volume were expressed in mm^3 using the formula: V=½×a×b^2 where a and b are the long and short diameters of the tumor, respectively.
The tumor mass were weighed and photographed at the end of the experiment after harvested.
Inhibition rate (%)=(average tumor volume of control group-average cancer volume of test group)/average tumor volume of control group ×100%

[5] = Text: At the end of the experiment (the 22nd day after initiating drug treatment), the blood from some tumor-bearing mice per group (4 mice from the group 1, 5 mice from the group 2, 4 mice from the group 3) were collected by cardiac puncture, and the mice were sacrificed by cervical dislocation while under deep anesthesia. The other tumor-bearing mice from each group (5 mice from the group 1, 5 mice from the group 2) were sacrificed after another 13 days treatment (the 35th day after initiating drug treatment), the blood was collected while sacrificing the mice. The tumor samples were harvested, weighed, cut into small pieces and snap frozen in liquid nitrogen for RNA extraction. The liver were harvested and fixed in 10% NBF, and embedded in paraffin for histology analysis.
Blood were collected from all animals by terminal bleed for subsequent serum preparation, and serum was prepared at the end of the study for each animal. Serum samples were frozen in microcentrifuge tube at −80° C. To test the liver toxicity of the two compounds, biochemical dictators (ALT, AST) were analyzed in all the serum samples no more than 3 days after collection. The excess serum samples would be sent to client.
The serum was collected as explained above in methods and was used to assess the activity of ALT (alanine aminotransferase) and AST (aspartate aminotransferase).

[6] = General toxicity in nude mice (mortality, tolerance, body weight); format: in vivo
Procedure: as §4
If abnormal appearance and behavior or signs of morbidity and/or mortality was seen through the cage side observation, the veterinarian would be notified and proper physical examination and/or necropsy would be performed. The food consumption in each group would be recorded. Frequency: daily just after the cell inoculation and twice a day thereafter starting on first dosing.
as §5
The use of different treatment concentrations (dosages) of derivative ‘A’ and plumbagin was due to the high toxicity of plumbagin at 5 mg/kg dose (8 mice died due to toxicity in first few days).

[7] = Liver tissue H&E staining; format: in vivo, nude mice; conditions: FIG. 12
Procedure: To test the liver toxicity of the two compounds, livers were harvested from all animals while sacrificing the animals. One piece of the liver was fixed in 10% NBF, and embeded in paraffin for pathology analysis, 1 paraffin block was prepared from each liver sample, 2 slides were used for H&E staining.
The following indications were examined on the photographs for liver tissue H&E staining (FIG. 12): (1) If the liver cells produce fatty degeneration, necrosis, hepatic lobule inflammation or not; (2) If the hepaticus sinus produce dilation or hyperaemia or not; (3) If the hepaticus portal area produce the inflammation or fibrous tissue hyperplasia or not. According to pathology degree from low to high: no lesion “−”, minor lesion “±”, low lesion “+”, middle lesion “++”, high lesion “+++”, highest lesion “++++”. […] The vehicle control is rather showing more toxicity to liver as compared to compounds under testing.

MCF-7 cells [8] = assay: Microarray expression and pathway analysis in MCF-7 cells; format: cell-based, human; conditions: for 'Atherosclerosis signaling' pathway: MCF-7 induced with 5 and 10 μM, IPA pathway mapping
Procedure: Microarray analysis was performed in an effort to identify the possible mechanism of action of derivative ‘A’. The MCF-7 cells induced with 5 and 10 μM of derivative ‘A’ and plumbagin were subjected to microarray experiments and the fold-change in expression was calculated as compared to untreated samples. The lists of differentially expressed genes were mapped to pathways using Ingenuity Pathway Analysis (IPA) tool and several key pathways affected by treatment of derivative ‘A’ and plumbagin were identified. ‘Atherosclerosis signaling’ was one of the key pathways that were affected by derivative ‘A’ and not the plumbagin.

[9] = MTT time-course screening (12, 24, 36, 48 hr)
[10] = after 24 hr (20 μM per preceding sentence)

## CC(=O)Oc1cccc2c1C(=O)C=C(C)C2=O [derivative ‘A’, acetyl plumbagin]
[1]; 10 μM, 12 hr of treatment
  cytotoxicity in MCF-7: comparative to plumbagin
[1]; 10 μM, after 12 hr of treatment (FIG. 2)
  inhibits metabolic activity of cancer cells: 90%
[1]; [9]
  activity against MCF-7 cells: selective apoptotic activity
[2]; 10 μM, 12 hr
  toxicity against BJ cell line: almost nil
[2]; 10 μM, 24 hr, compared to plumbagin at the same concentration
  toxicity against BJ cell line, times less than plumbagin: ~20 times
[2]; 20 μM, after 36 hr of treatment (FIG. 2)
  normal cells BJ inhibited: 20%
[2]; [9]
  effect on normal fibroblasts: relatively unaffected
[2]; after 36 hr of induction
  toxicity in BJ cell line, folds less than Plumbagin: ~4.5 folds
[3]; [9]
  hepatotoxicity (data based on HepG2 cell line): negligible
[3]; HepG2, 24 hr of treatment
  IC50: 41.2 µM
MCF-7 cells [4]; 10 μM, 24 hr
  apoptosis induced in cancer cells: about 50%
MCF-7 cells [4]; [10]
  cancer cells undergoing apoptosis: 100%
BJ cells; 10 μM, treatment for 24 hr
  safety for normal cells: safe
BJ cells; [10]
  normal cells undergoing apoptosis: 20%
BJ cells; up to 20 μM, treatment for 12 hr
  effect on normal cells (growth inhibition and apoptosis): relatively unaffected
MCF-7 tumor
  Tumor volume measured externally, AV: 420.9 mm^3
  Tumor volume measured externally, individual mouse (1-5): 493.1 mm^3 and 595.4 mm^3 and 151.4 mm^3 and 486.0 mm^3 and 378.5 mm^3
  Tumor weight at autopsy, AV: 0.3145
  Tumor weight at autopsy, individual mouse (1-5): 0.3930 and 0.3862 and 0.3802 and 0.3290 and 0.0843
  Tumor inhibition rate (C − T)/C × 100%, tumor volume: 37.69%
  Tumor inhibition rate (C − T)/C × 100%, tumor weight: 44.96%
MCF-7 tumor; group of treated mice versus other groups
  tumor size (FIGS. 6A-6B): smaller
[5]; in vivo summary
  ALT and AST values: low
[5]; outliers removed
  mean ALT value (FIG. 10): lower than plumbagin and even lower than vehicle treated mice
[6]; 5 mg/kg 21 days, 10 mg/kg 13 days, i.p, qd
  animal deaths with treatment: No animal died
[6]; in the course of the treatment
  body weight loss: minimum
[7]
  liver toxicity by H&E staining of liver tissue: less toxic to liver as compared to plumbagin
MCF-7 cells [8]; MCF-7, 10 μM, interleukins, MMPs, CXCL family members
  gene families down-regulated as compared to untreated samples: > 2 fold
MCF-7 cells [8]
  'Atherosclerosis signaling' pathway: affected

## CC1=CC(=O)c2c(O)cccc2C1=O [plumbagin, 5-hydroxy-2-methyl-1,4-naphthoquinone, reference compound]
[1]; Homo sapiens, MCF7, 12 h, read-out: inhibits metabolic activity of cancer cells
  inhibition at 5 µM: 90%
[2]; Homo sapiens, BJ, 12 h, read-out: inhibits metabolic activity of normal cells BJ
  inhibition at 10 µM: ~70%
[3]; Homo sapiens, HepG2, 24 h
  IC50: 10.2 µM
MCF-7 cells [4]; 5 μM, within 24 hr of treatment
  apoptosis in cancer cells: induces apoptosis
MCF-7 tumor
  Tumor volume measured externally, AV: 560.2 mm^3
  Tumor weight at autopsy, AV: 0.6020
  Tumor inhibition rate (C − T)/C × 100%, tumor volume: 17.07%
  Tumor inhibition rate (C − T)/C × 100%, tumor weight: −5.35%
MCF-7 tumor; listed as Compound P
  Tumor volume measured externally, individual mouse (1-5): 1441.7 mm^3 and 260.9 mm^3 and 234.5 mm^3 and 303.8 mm^3
  Tumor weight at autopsy, individual mouse (1-5): 1.3530 and 0.4301 and 0.3675 and 0.2574
[6]; 2 mg/kg dose, separate regimen with 1, 2 and 3 mg/kg
  tolerance by mice (body weight loss): well tolerated
MCF-7 cells [8]
  'Atherosclerosis signaling' pathway: not
